molecular target: T1, CXCR7 (Homo sapiens, UniProt P25106); assay: PathHunter CHO-K1 CXCR7 b-arrestin recruitment assay (CXCR7 agonistic activity); type: cell-based; conditions: PathHunter CHO-K1 CXCR7 b-arrestin cell line
T1 construct: host or cells: CHO-K1 (PathHunter CHO-K1 CXCR7 b-arrestin cell line, stably transfected)
Summary of the method: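 Stable CHO-K1 line with C-terminally ProLink-tagged CXCR7 and β-arrestin 2–EA fusion; β-arrestin recruitment restores β-gal activity, read by chemiluminescence after 1 h RT detection. Cells seeded 24 h, starved in OPTIMEM 3–4 h, exposed to compounds 90 min at 37 °C in HBSS/HEPES/BSA. Geometric-mean EC50 from repeated measurements.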

T1 sequence (P25106 whole entry): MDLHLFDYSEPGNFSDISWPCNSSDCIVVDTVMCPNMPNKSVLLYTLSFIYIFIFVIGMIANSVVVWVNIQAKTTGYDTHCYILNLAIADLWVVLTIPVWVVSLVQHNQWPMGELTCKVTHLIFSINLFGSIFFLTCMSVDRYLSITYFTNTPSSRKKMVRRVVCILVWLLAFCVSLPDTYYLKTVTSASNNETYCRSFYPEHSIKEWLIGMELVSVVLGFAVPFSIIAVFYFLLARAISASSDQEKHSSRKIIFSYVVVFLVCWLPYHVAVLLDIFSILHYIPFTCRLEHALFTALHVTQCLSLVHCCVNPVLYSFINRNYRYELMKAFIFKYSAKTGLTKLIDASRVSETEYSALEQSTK
T1 sequence (P32121 whole entry partner): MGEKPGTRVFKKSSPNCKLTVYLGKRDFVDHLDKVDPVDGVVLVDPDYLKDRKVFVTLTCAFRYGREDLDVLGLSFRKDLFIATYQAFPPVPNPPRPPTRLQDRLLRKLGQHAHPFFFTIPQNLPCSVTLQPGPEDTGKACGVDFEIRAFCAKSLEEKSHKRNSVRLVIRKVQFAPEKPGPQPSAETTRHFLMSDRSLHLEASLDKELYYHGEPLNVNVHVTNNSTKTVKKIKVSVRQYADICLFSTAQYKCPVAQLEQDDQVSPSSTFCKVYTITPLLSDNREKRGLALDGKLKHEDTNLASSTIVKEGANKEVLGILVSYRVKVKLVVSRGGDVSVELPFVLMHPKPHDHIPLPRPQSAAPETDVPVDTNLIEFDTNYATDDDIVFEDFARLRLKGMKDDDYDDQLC

| SMILES | EC50 [nM] |
| --- | --- |
| CN(C)CCN(Cc1ccccc1)C(=O)/C=C/c1cccc2c1CCN(C)C2 [compound 142, (E)-N-Benzyl-N-(2-dimethylamino-ethyl)-3-(2-methyl-1,2,3,4-tetrahydro-isoquinolin-5-yl)-acrylamide] | 23 |
| CN(C)CCN(Cc1ccccc1)C(=O)/C=C/c1cccc2c1CCN(CC1CC1)C2 [compound 143, (E)-N-Benzyl-3-(2-cyclopropylmethyl-1,2,3,4-tetrahydro-isoquinolin-5-yl)-N-(2-dimethylamino-ethyl)-acrylamide] | 3 |
| CCOC(=O)CN(Cc1ccccc1)C(=O)/C=C/c1cccc2c1CCN(CC1CC1)C2 [compound 144, {Benzyl-[(E)-3-(2-cyclopropylmethyl-1,2,3,4-tetrahydro-isoquinolin-5-yl)-acryloyl]-amino}-acetic acid ethyl ester] | 22 |
| CCN1CCc2c(/C=C/C(=O)N(CCN(C)C)Cc3ccccc3Cl)cccc2C1 [compound 145, (E)-N-(2-Chloro-benzyl)-N-(2-dimethylamino-ethyl)-3-(2-ethyl-1,2,3,4-tetrahydro-isoquinolin-5-yl)-acrylamide] | 8 |
| CN(C)CCN(Cc1ccccc1Cl)C(=O)/C=C/c1cccc2c1CCN(CC1CC1)C2 [compound 146, (E)-N-(2-Chloro-benzyl)-3-(2-cyclopropylmethyl-1,2,3,4-tetrahydro-isoquinolin-5-yl)-N-(2-dimethylamino-ethyl)-acrylamide] | 2 |
| O=C(/C=C/c1cccc2c1CCN(CC1CC1)C2)N(Cc1ccccc1)C1CCS(=O)(=O)C1 (stereo not drawn) [compound 147] | 16 |
| O=C(/C=C/c1cccc2c1CCN(CC1CC1)C2)N(CCc1ccc(F)cc1)Cc1ccccc1 [compound 148] | 54 |
| CCN1CCc2c(/C=C/C(=O)N(CCN(C)C)Cc3ccccc3C(F)(F)F)cccc2C1 [compound 149, (E)-N-(2-Dimethylamino-ethyl)-3-(2-ethyl-1,2,3,4-tetrahydro-isoquinolin-5-yl)-N-(2-trifluoromethyl-benzyl)-acrylamide] | 0.6 |
| CN(C)CCN(Cc1ccccc1C(F)(F)F)C(=O)/C=C/c1cccc2c1CCN(CC1CC1)C2 [compound 150, (E)-3-(2-Cyclopropylmethyl-1,2,3,4-tetrahydro-isoquinolin-5-yl)-N-(2-dimethylamino-ethyl)-N-(2-trifluoromethyl-benzyl)-acrylamide] | 1 |
| CCN1CCc2c(/C=C/C(=O)N(Cc3ccccc3C(F)(F)F)C3CCN(C)CC3)cccc2C1 [compound 151, (E)-3-(2-Ethyl-1,2,3,4-tetrahydro-isoquinolin-5-yl)-N-(1-methyl-piperidin-4-yl)-N-(2-trifluoromethyl-benzyl)-acrylamide] | 34 |
| CN1CCC(N(Cc2ccccc2C(F)(F)F)C(=O)/C=C/c2cccc3c2CCN(CC2CC2)C3)CC1 [compound 152, (E)-3-(2-Cyclopropylmethyl-1,2,3,4-tetrahydro-isoquinolin-5-yl)-N-(1-methyl-piperidin-4-yl)-N-(2-trifluoromethyl-benzyl)-acrylamide] | 8 |
| C/C(=C\c1cccc2c1CCN(CC1CC1)C2)C(=O)N(CCN(C)C)Cc1ccccc1C(F)(F)F [compound 154, (E)-3-(2-Cyclopropylmethyl-1,2,3,4-tetrahydro-isoquinolin-5-yl)-N-(2-dimethylamino-ethyl)-2-methyl-N-(2-trifluoromethyl-benzyl)-acrylamide] | 29 |
| CCN1CCc2c(CCC(=O)N(CCN(C)C)Cc3ccccc3Cl)cccc2C1 [compound 155, N-(2-Chloro-benzyl)-N-(2-dimethylamino-ethyl)-3-(2-ethyl-1,2,3,4-tetrahydro-isoquinolin-5-yl)-propionamide] | 17 |
| CN(C)CCN(Cc1ccccc1Cl)C(=O)CCc1cccc2c1CCN(CC1CC1)C2 [compound 156, N-(2-Chloro-benzyl)-3-(2-cyclopropylmethyl-1,2,3,4-tetrahydro-isoquinolin-5-yl)-N-(2-dimethylamino-ethyl)-propionamide] | 1 |
| CCN1CCc2c(CCC(=O)N(CCN(C)C)Cc3ccccc3C(F)(F)F)cccc2C1 [compound 157, N-(2-Dimethylamino-ethyl)-3-(2-ethyl-1,2,3,4-tetrahydro-isoquinolin-5-yl)-N-(2-trifluoromethyl-benzyl)-propionamide] | 9 |
| CN(C)CCN(Cc1ccccc1C(F)(F)F)C(=O)CCc1cccc2c1CCN(CC1CC1)C2 [compound 158, 3-(2-Cyclopropylmethyl-1,2,3,4-tetrahydro-isoquinolin-5-yl)-N-(2-dimethylamino-ethyl)-N-(2-trifluoromethyl-benzyl)-propionamide] | 2 |
| CCN1CCc2c(CCC(=O)N(Cc3ccccc3C(F)(F)F)C3CCN(C)CC3)cccc2C1 [compound 159] | 72 |
| CN1CCC(N(Cc2ccccc2C(F)(F)F)C(=O)CCc2cccc3c2CCN(CC2CC2)C3)CC1 [compound 160, 3-(2-Cyclopropylmethyl-1,2,3,4-tetrahydro-isoquinolin-5-yl)-N-(1-methyl-piperidin-4-yl)-N-(2-trifluoromethyl-benzyl)-propionamide] | 15 |
| CN(C)CCN(Cc1ccccc1)C(=O)CCc1cccc2c1CCN(CC1CC1)C2 [compound 161, N-Benzyl-3-(2-cyclopropylmethyl-1,2,3,4-tetrahydro-isoquinolin-5-yl)-N-(2-dimethylamino-ethyl)-propionamide] | 4 |
| CC(C)CCN(Cc1ccccc1)C(=O)COc1cccc2c1CCN(CC1CC1)C2 [compound 163, N-Benzyl-2-(2-cyclopropylmethyl-1,2,3,4-tetrahydro-isoquinolin-5-yloxy)-N-(3-methyl-butyl)-acetamide] | 17 |

| SMILES | EC50 [nM] |
| --- | --- |
| CN(C)CCN(Cc1ccccc1)C(=O)COc1cccc2c1CCN(C)C2 [compound 164] | 84 |
| CCN1CCc2c(cccc2OCC(=O)N(CCN(C)C)Cc2ccccc2)C1 [compound 165] | 61 |
| CN(C)CCN(Cc1ccccc1)C(=O)COc1cccc2c1CCN(CC1CC1)C2 [compound 166, N-Benzyl-2-(2-cyclopropylmethyl-1,2,3,4-tetrahydro-isoquinolin-5-yloxy)-N-(2-dimethylamino-ethyl)-acetamide] | 6 |
| CC(C)CN1CCc2c(cccc2OCC(=O)N(CCN(C)C)Cc2ccccc2)C1 [compound 168, N-Benzyl-N-(2-dimethylamino-ethyl)-2-(2-isobutyl-1,2,3,4-tetrahydro-isoquinolin-5-yloxy)-acetamide] | 20 |
| CCC(=O)N1CCc2c(cccc2OCC(=O)N(CCN(C)C)Cc2ccccc2)C1 [compound 169, N-Benzyl-N-(2-dimethylamino-ethyl)-2-(2-propionyl-1,2,3,4-tetrahydro-isoquinolin-5-yloxy)-acetamide] | 42 |
| CC(C)C(=O)N1CCc2c(cccc2OCC(=O)N(CCN(C)C)Cc2ccccc2)C1 [compound 170] | 74 |
| CCN1CCc2c(cccc2OCC(=O)N(CCN(C)C)Cc2ccccc2Cl)C1 [compound 171, N-(2-Chloro-benzyl)-N-(2-dimethylamino-ethyl)-2-(2-ethyl-1,2,3,4-tetrahydro-isoquinolin-5-yloxy)-acetamide] | 18 |
| CN(C)CCN(Cc1ccccc1Cl)C(=O)COc1cccc2c1CCN(CC1CC1)C2 [compound 172, N-(2-Chloro-benzyl)-2-(2-cyclopropylmethyl-1,2,3,4-tetrahydro-isoquinolin-5-yloxy)-N-(2-dimethylamino-ethyl)-acetamide] | 2 |
| CCN1CCc2c(cccc2OCC(=O)N(CCN(C)C)Cc2ccccc2C(F)(F)F)C1 [compound 173, N-(2-Dimethylamino-ethyl)-2-(2-ethyl-1,2,3,4-tetrahydro-isoquinolin-5-yloxy)-N-(2-trifluoromethyl-benzyl)-acetamide] | 5 |
| CN(C)CCN(Cc1ccccc1C(F)(F)F)C(=O)COc1cccc2c1CCN(CC1CC1)C2 [compound 174, 2-(2-Cyclopropylmethyl-1,2,3,4-tetrahydro-isoquinolin-5-yloxy)-N-(2-dimethylamino-ethyl)-N-(2-trifluoromethyl-benzyl)-acetamide] | 0.8 |
| CN(C)CCN(Cc1ccccc1)C(=O)CNc1cccc2c1CN(C)CC2 [compound 182] | 69 |
| CC(C)CCN(Cc1ccccc1)C(=O)CNc1cccc2c1CN(C)CC2 [compound 183] | 140 |
| CN(C)CCN(Cc1ccccc1)C(=O)CNc1cccc2c1C(=O)N(C)CC2 [compound 184] | 270 |
| CC(C)N1CCc2cccc(NCC(=O)N(CCN(C)C)Cc3ccccc3)c2C1 [compound 186] | 91 |
| CN(C)CCN(Cc1ccccc1)C(=O)CNc1cccc2c1CN(CC1CC1)CC2 [compound 187, N-Benzyl-2-(2-cyclopropylmethyl-1,2,3,4-tetrahydro-isoquinolin-8-ylamino)-N-(2-dimethylamino-ethyl)-acetamide] | 34 |
| CC(C)CN1CCc2cccc(NCC(=O)N(CCN(C)C)Cc3ccccc3)c2C1 [compound 189, N-Benzyl-N-(2-dimethylamino-ethyl)-2-(2-isobutyl-1,2,3,4-tetrahydro-isoquinolin-8-ylamino)-acetamide] | 37 |
| CC(C)C(=O)N1CCc2cccc(NCC(=O)N(CCN(C)C)Cc3ccccc3)c2C1 [compound 191] | 59 |
| CC(C)OC(=O)N1CCc2cccc(NCC(=O)N(CCN(C)C)Cc3ccccc3)c2C1 [compound 192, 8-({[Benzyl-(2-dimethylamino-ethyl)-carbamoyl]-methyl}-amino)-3,4-dihydro-1H-isoquinoline-2-carboxylic acid isopropyl ester] | 38 |
| CN(C)CCN(Cc1ccccc1)C(=O)CNc1cccc2c1CN(Cc1ccccc1)CC2 [compound 193, N-Benzyl-2-(2-benzyl-1,2,3,4-tetrahydro-isoquinolin-8-ylamino)-N-(2-dimethylamino-ethyl)-acetamide] | 48 |

Source: US9920010B2, “CXCR7 receptor modulators” (IDORSIA PHARMACEUTICALS LTD, priority 2013, dated 2018)
